Results as given in ChEMBL document CHEMBL1201862, “PubChem BioAssay data set” (2004).
Active and inactive are the calls of the source.

Legend:
[1] = system: HEK293; assay: cells; type: functional, cell-based; settings: Homo sapiens
[2] = target: Nucleotide-binding oligomerization domain-containing protein 2 (Homo sapiens, UniProt Q9HC29); assay: NOD2 signaling inhibitors, cell-based, luminescence, uHTS, HEK293 (AID 1566); type: functional
[3] = target: T1, Short transient receptor potential channel 4 (Mus musculus, UniProt Q9QUQ5); assay: mouse TRPC4 channel inhibitors, dose response, cell-based, HEK293 TRPC4/mu-opioid, Fluo-4 calcium (AID 434942); type: functional;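 further: potency of inhibitors blocking the TRPC4 calcium response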
T1 sequence (Q9QUQ5 whole entry): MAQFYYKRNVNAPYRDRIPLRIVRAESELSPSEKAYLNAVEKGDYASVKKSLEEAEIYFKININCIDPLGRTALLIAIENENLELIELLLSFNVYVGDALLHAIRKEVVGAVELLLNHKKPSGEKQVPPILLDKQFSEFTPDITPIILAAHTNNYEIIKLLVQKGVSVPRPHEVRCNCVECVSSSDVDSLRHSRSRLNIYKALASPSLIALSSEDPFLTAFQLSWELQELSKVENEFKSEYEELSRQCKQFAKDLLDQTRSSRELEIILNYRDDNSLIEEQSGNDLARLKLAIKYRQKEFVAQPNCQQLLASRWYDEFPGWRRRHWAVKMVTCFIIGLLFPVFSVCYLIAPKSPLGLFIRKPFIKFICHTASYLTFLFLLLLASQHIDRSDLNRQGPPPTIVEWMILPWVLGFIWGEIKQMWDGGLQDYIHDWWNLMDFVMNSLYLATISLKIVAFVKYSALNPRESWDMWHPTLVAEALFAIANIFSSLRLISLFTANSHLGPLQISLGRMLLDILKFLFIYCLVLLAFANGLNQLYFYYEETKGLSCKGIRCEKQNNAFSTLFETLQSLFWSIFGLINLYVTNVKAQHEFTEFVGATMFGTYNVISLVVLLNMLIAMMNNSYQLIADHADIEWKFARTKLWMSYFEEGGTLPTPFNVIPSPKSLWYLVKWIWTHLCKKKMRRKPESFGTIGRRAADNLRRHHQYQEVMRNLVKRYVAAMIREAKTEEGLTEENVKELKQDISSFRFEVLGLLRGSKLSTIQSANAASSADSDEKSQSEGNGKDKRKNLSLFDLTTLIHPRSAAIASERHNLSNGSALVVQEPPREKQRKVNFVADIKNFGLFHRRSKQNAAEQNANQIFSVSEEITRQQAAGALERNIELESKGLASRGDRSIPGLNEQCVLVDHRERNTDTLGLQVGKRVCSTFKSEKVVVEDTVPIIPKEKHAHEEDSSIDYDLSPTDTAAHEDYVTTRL

[4] = system: HEK293; assay: NOD2 signaling inhibitors in MDP-stimulated cells, cell-based, uHTS, luminescence (AID 2001); type: functional; settings: Homo sapiens
[5] = system: HEK293; assay: NOD1 signaling inhibitors, primary screen, cell-based, luminescence, uHTS (AID 1578); type: functional; settings: Homo sapiens
[6] = system: HEK293; assay: cells; type: functional, cell-based; settings: Homo sapiens; remark: listed apart in the source
[7] = system: HEK293; assay: cells; type: functional, cell-based; settings: Homo sapiens; remark: listed apart in the source
[8] = target: T2, Exodeoxyribonuclease V (Escherichia coli (strain K12), UniProt P04993+P07648+P08394); assay: E. coli RecBCD inhibitors, dose response, counter-screen for AddAB inhibitor project, absorbance, V66 E. coli, mutant T4 phage (AID 492957); type: functional, cell-based, Escherichia coli str. K-12 substr. MG1655
T2 sequence (P04993 whole entry): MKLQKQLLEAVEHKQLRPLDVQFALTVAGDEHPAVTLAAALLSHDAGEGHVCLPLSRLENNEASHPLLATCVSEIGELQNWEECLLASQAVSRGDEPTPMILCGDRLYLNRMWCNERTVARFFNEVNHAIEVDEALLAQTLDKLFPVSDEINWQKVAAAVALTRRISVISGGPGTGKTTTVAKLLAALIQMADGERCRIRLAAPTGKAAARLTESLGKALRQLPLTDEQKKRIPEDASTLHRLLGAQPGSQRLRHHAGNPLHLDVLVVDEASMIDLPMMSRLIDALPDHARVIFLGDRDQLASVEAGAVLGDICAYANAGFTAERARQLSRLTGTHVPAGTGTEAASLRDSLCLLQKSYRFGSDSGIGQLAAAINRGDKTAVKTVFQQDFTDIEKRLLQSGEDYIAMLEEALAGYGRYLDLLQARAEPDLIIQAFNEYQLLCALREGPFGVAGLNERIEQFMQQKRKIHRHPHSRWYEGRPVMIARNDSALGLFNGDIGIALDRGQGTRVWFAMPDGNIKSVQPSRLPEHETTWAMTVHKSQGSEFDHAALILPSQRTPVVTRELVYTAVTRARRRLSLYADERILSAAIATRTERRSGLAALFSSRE
T2 sequence (P07648 whole entry): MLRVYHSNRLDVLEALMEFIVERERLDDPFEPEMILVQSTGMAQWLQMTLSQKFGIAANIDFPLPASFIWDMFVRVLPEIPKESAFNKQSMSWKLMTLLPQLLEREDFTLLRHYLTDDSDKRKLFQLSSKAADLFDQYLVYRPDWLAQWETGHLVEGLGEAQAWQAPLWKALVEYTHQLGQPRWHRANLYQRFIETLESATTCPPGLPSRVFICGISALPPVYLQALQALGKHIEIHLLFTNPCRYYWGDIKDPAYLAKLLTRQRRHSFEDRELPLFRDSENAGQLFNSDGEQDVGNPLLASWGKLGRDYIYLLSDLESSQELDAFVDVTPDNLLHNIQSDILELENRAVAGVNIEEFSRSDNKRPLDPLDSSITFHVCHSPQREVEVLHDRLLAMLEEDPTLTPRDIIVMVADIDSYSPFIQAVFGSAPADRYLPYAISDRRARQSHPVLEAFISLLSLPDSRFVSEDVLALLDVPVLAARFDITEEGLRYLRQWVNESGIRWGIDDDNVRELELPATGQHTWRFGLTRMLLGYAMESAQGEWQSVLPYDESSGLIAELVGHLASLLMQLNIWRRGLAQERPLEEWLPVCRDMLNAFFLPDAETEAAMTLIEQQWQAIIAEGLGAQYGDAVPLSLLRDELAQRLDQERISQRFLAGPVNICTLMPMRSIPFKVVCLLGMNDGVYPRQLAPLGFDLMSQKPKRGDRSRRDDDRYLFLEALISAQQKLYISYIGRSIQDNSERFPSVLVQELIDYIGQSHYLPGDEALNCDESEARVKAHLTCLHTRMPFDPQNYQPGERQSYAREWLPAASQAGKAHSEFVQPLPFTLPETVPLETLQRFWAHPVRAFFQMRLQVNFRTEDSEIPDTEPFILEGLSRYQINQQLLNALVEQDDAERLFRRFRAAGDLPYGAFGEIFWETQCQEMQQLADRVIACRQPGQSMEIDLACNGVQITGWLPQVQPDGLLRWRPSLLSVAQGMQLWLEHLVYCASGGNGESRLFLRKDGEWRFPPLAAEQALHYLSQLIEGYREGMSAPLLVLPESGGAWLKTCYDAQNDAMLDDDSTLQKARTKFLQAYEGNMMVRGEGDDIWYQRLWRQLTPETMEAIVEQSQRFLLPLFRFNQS
T2 sequence (P08394 whole entry): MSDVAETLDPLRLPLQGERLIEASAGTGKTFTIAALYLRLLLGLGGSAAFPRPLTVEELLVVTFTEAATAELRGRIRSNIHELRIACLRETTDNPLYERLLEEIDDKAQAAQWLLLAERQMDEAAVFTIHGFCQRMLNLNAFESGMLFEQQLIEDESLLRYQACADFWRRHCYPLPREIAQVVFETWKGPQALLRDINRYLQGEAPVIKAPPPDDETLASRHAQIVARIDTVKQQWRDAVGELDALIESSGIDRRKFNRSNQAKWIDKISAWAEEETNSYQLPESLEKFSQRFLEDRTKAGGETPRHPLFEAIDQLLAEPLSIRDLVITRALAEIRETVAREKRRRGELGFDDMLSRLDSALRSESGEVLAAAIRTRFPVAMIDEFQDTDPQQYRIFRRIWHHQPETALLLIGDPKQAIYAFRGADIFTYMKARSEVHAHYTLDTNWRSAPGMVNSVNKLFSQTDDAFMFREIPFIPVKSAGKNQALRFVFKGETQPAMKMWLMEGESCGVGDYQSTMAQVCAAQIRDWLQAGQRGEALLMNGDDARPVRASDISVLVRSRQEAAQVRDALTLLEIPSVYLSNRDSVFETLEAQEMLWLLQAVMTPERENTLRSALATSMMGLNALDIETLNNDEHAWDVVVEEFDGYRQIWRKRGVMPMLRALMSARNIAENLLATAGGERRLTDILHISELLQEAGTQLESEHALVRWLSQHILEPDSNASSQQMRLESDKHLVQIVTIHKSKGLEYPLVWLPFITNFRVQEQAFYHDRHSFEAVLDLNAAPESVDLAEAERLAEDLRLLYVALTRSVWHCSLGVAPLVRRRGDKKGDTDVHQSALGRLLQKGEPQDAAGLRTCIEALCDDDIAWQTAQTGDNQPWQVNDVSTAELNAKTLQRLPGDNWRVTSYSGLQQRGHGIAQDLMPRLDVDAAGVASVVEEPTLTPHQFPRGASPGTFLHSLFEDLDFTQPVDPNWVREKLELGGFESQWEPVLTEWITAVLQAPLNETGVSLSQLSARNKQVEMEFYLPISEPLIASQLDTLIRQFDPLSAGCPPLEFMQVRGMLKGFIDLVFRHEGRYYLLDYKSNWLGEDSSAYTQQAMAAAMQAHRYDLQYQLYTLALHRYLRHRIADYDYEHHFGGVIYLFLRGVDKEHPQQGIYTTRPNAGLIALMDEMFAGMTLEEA

[9] = Counterscreen for AddAB inhibitors: absorbance-based bacterial cell-based high throughput dose response assay for inhibitors of bacterial viability. [Related pubchem assays (depositor defined):AID435030, AID449728, AID449731, AID488942, AID488955, AID488956]; type: functional
[10] = inhibitors of intracellular T. cruzi replication, confirmation, NIH3T3 host cells, beta-gal luminescence (AID 2044); type: functional, cell-based;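 further: intracellular parasites grown in NIH/3T3 mouse fibroblasts as host cells; luminescent beta-galactosidase reporter signal from transgenic T. cruzi replicating inside host cells; inhibitors lower the luminescence signal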
[11] = system: Streptococcus sp. 'group A'; assay: growth inhibition of control SK(-) GAS strain, dose response, counter-screen for streptokinase expression inhibitor project, luminescence, kanamycin, BacTiterGlo, confirmation (AID 1900); type: functional, organism-based
[12] = Luminescence Cell-Based Dose Retest to Confirm Inhibitors of Cancer Stem Cells. [Related pubchem assays (depositor defined):AID2717, AID2721]; type: functional; settings: Homo sapiens
[13] = cytotoxicity toward NIH3T3 fibroblasts, dose response, counter-screen, cell-based, ATP luminescence, mouse fibroblasts (AID 2010); type: functional;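 further: cells exposed to compound for about 90 hours before reading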
[14] = target: Heat shock protein HSP 90-alpha (Homo sapiens, UniProt P07900); type: functional, organism-based
[15] = system: Streptococcus; assay: Group A Streptococcus viability loss, dose response, counter-screen for streptokinase expression inhibitor project, luminescence, BacTiterGlo (AID 1915); type: functional, organism-based;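 further: potency for reduction of bacterial viability or growth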
[16] = cells; type: functional, cell-based
[17] = cells; type: functional, cell-based; remark: listed apart in the source
[18] = system: INS1; assay: beta cell apoptosis inhibitors, cytokine rescue, dose response, luminescence, retest (AID 449756); type: functional, cell-based; settings: Rattus norvegicus;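 further: cell death triggered by IL-1 beta plus TNF-alpha plus IFN-gamma mixture; protective hits raise ATP signal compared with cytokine alone wells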
[19] = target: T3, Carboxy-terminal domain RNA polymerase II polypeptide A small phosphatase 1 (Homo sapiens, UniProt Q9GZU7); assay: inhibitors of CTDSP1, concentration-response testing, biochemical assay, absorbance-based, actives from ultra-high-throughput screening (AID 540297); type: functional
T3 sequence (Q9GZU7 whole entry): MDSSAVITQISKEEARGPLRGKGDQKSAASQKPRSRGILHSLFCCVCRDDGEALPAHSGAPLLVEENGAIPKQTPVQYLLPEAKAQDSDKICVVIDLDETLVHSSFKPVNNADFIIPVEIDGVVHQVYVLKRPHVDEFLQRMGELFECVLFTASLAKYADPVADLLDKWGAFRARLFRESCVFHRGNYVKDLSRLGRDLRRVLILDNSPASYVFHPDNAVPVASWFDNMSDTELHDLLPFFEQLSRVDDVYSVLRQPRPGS

Chain of Nucleotide-binding oligomerization domain-containing protein 2 (Q9HC29 whole entry, the tested form may be a part): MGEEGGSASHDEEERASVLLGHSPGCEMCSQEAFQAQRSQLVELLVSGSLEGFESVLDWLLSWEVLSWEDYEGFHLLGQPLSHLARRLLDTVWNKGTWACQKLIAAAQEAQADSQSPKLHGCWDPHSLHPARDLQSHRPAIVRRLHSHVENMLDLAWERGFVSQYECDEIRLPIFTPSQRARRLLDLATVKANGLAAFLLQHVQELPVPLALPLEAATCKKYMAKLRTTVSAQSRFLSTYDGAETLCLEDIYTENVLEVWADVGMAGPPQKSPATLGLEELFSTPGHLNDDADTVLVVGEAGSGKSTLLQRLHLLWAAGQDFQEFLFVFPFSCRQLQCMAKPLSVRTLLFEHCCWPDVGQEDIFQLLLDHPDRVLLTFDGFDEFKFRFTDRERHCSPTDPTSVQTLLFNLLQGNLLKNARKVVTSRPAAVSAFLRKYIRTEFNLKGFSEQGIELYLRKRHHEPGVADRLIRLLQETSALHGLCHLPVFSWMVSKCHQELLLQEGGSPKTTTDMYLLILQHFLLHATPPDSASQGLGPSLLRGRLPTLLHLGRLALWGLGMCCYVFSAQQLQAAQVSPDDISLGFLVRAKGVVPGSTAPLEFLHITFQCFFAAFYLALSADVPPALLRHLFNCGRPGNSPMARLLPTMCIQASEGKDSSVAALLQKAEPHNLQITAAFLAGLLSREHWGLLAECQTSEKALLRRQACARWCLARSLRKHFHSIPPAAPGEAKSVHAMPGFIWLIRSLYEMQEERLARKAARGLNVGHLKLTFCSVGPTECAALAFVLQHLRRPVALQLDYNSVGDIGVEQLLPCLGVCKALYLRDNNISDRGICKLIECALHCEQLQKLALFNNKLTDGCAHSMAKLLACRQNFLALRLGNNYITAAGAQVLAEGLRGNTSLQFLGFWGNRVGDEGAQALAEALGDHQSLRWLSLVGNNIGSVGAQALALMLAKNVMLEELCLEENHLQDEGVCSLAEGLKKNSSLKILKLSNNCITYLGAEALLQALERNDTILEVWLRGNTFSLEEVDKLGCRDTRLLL

## Cc1nc(N2CCN(c3ccccn3)CC2)c2c(C)c(C(=O)N3CCN(c4ccccc4F)CC3)sc2n1
[1]
  IC50: 11 µM (active)
[2]
  EC50: 5.07 µM (active)
[3]
  EC50: 1.68 µM (active)
[4]
  IC50: 7.16 µM (inactive)
[5]
  EC50: 6.4 µM (active)
[6]
  IC50: 6.62 µM (active)
[7]
  IC50: > 20 µM (inactive)

## CSc1nc(N)nc2c1ncn2CC(=O)Nc1ccc(C)c(C)c1
[8]
  IC50: > 118 µM (inactive)
[9]
  IC50: > 118 µM (inactive)

## CCCC(=O)NC(c1ccc2c(c1)OCO2)c1cc(Cl)c2cccnc2c1O (centres undefined)
[10]
  EC50: 0.912 µM (active)
[11]
  EC50: 4.09 µM (active)
[8]
  IC50: > 119 µM (inactive)
[12]
  AC50: 3.06 µM (active)
[13]
  EC50: 2.21 µM (active)
[14]
  AC50: 3.41 µM (active)
[15]
  EC50: 7.69 µM (active)
[9]
  IC50: > 119 µM (inactive)
[16]
  EC50: > 350 µM (not active)
[17]
  EC50: 47.7 µM (active)
[18]
  AC50: 1.03 µM (active)

## CCS(=O)(=O)C1=NN2C(=N)/C(=C\c3ccc(OCCOc4cccc(OC)c4)c(OC)c3)C(=O)N=C2S1
[1]
  IC50: > 20 µM (inactive)
[2]
  EC50: 3.32 µM (active)
[4]
  IC50: > 20 µM (inactive)
[5]
  EC50: > 20 µM (inactive)
[19]
  IC50: 4.26 µM (active)
[6]
  IC50: > 20 µM (inactive)
[7]
  IC50: > 20 µM (inactive)

## Cc1c(Cl)cccc1N=C(S)NCc1ccccc1Cl
[8]
  IC50: > 119 µM (inactive)
[9]
  IC50: > 119 µM (inactive)
